Results from patent US10905691B2, “Use of triazolo(4,5-d)pyrimidine derivatives for prevention and treatment of bacterial infection” (Universite de Liege, priority 2016, dated 2021).
≈ marks a conversion by molar mass, not a printed value.

Experiments:
[1] = system: Staphyloccocus epidermidis (ATCC 35984) biofilm; assay: Biofilm formation (crystal violet, 24-well plate); format: cell-based, Staphylococcus epidermidis; details: 38 μM; 20 hours; FIG. 10B
Procedure: Staphyloccocus aureus (ATCC 25904) or Staphyloccocus epidermidis (ATCC 35984) were grown overnight in TSB medium, before being diluted 100 fold in fresh TSB, and incubated aerobically at 37° C. until bacteria culture reached an OD600 of 0.6 (corresponding to approximately 1-3×10^8 CFU/ml). Bacteria cultures were then diluted to 1×10^4 CFU/ml in fresh TSB. Aliquots of 800 μl diluted bacteria suspensions were distributed in each well of a 24-well plate. Bacteria were allowed to adhere for 4 hours under static conditions at 37° C. After removing the media, wells were rinsed 2 times with PBS to eliminate planktonic bacteria and re-filled with TSB supplemented with 0.5% glucose containing Fluometacyl at desired concentration or DMSO alone (Ctrl). The 24-well plates were incubated at 37° C. for 20 hours. Wells were then washed and stained with 0.5% (w/v) crystal violet for 30 minutes and rinsed with PBS 4 times. The dye was solubilized by adding 20% acetic acid (v/v in water) before reading absorbance at 595 nm. FIG. 10A and FIG. 10B show Fluometacyl effect on S. aureus and S. epidermidis biofilm formation respectively at all concentrations tested.

[2] = system: S. agalactiae (ATCC 12386); assay: MIC determination (EUCAST, Mueller-Hinton broth); format: cell-based; details: Streptococcus agalactiae, ATCC12386
Procedure: Further experiments were conducted using S. agalactiae (ATCC 12386), as clinically relevant Gram-positive bacterial strains in order to determine the Minimal Inhibitory Concentration (MIC) which is the minimal concentration required to prevent bacterial growth; the Minimal Bactericidal Concentration (MBC) which determines the lowest concentration at which an antimicrobial agent kill a particular microorganism and a Minimum Duration for killing 99.9% bacteria (MDK99.9) which is a tolerance metric according to the EUCAST.
MIC determination: A single colony selected from the different strains of S. agalactiae (ATCC 12386) is resuspended and cultured in the appropriate medium overnight (O/N) in aerobic conditions (37° C. with 220 rpm shaking), next day a 1:100 inoculum in Mueller-Hinton broth (MHB) was incubated in aerobic conditions for 3 hr (OD=0.08-0.1) and an inoculum of 1:300 dilution, corresponding to 3×10^5 CFU/ml, was incubated in presence or absence of different concentrations of Triafluocyl in 1% DMSO. After O/N growth the OD of each culture was measured at 600 nm in a spectrophotometer (OD600). The MIC represents the concentration at which there is no visible growth of bacteria, i.e. ΔOD at 600 nm equal to zero (blank is the medium alone). MIC for Triafluocyl against S. agalactiae (ATCC 12386) was 40 μg/ml.

[3] = system: E. faecalis (ATCC 29212); assay: Growth kinetics in logarithmic phase (OD600 and viable count); format: cell-based, Enterococcus faecalis; details: 30-120 min, FIG. 3
Procedure: E. faecalis (ATCC 29212) was grown overnight in Brain heart infusion (BHI) medium, diluted 1:100 in fresh BHI, and incubated aerobically at 37° C. until bacteria growth reached a logarithmic phase (OD600=0.25-0.3).
Increasing concentrations of Triafluocyl (Cayman Chemical, Item No. 15425) or DMSO as vehicle was then added in 5 ml of bacteria suspensions. Bacterial growth was measured after different time intervals (30-120 min) by spectrophotometry (OD600) and by counting the colony-forming units after plating appropriate culture dilutions on BHI agar plates.
In FIG. 3 kinetics of E. faecalis growth in the presence of an increasing concentrations (5 μg/ml to 40 μg/ml) of Triafluocyl were measured by turbidity measurement (upper graph), and viable count (lower graph). Data represent medians±range (n=3).

[4] = system: E. faecalis (ATCC 29212) biofilm; assay: Biofilm formation on polystyrene (crystal violet); format: cell-based, Enterococcus faecalis; details: 20 hours
Procedure: E. faecalis (ATCC 29212) was grown overnight in BHI medium, before being diluted 100 fold in fresh TSB, and incubated aerobically at 37° C. until bacteria culture reached an OD600 of 0.6 (corresponding to approximately 2-5×10^8 CFU/ml). Bacteria cultures were then diluted to 1×10^4 CFU/ml in fresh TSB. 800 μl aliquots of diluted bacteria suspensions were distributed in each well of a 24-well plate. Bacteria were allowed to adhere for 4 hours under static conditions at 37° C. After removing media, wells were rinsed 2 times with PBS to eliminate planktonic bacteria and re-filled with TSB supplemented with 0.5% glucose
Triafluocyl or DMSO as vehicle was then added at desired concentration and plates were incubated at 37° C. for 20 hours. After incubation, wells were washed and stained with 0.5% (w/v) crystal violet for 30 minutes, washed again and the dye was solubilized by adding 20% acetic acid (v/v in water) before reading absorbance at 595 nm.
E. faecalis biofilms were formed on polystyrene surface in the presence of increasing concentrations of Triafluocyl or DMSO as vehicle. In FIG. 2, Biofilm mass is presented as percentage of values obtained in the presence of DMSO (*P<0.05; **P<0.01; ***P<0.001, Triafluocyl versus DMSO, n=4).

[5] = system: S. epidermidis; assay: Growth of low-density inoculum (OD600, 4 hr); format: cell-based, Staphylococcus epidermidis; details: inoculum 0.08×10^6 CFU/ml
Description: Moreover, we have tested the effect of Triafluocyl on a low-density inoculum, 0.08×10^6 CFU/ml, from a culture of S. epidermidis in logarithmic phase.

[6] = system: E. faecalis VRE (ATCC BAA-2365); assay: Killing curve (CFU counting); format: cell-based, Enterococcus faecalis; details: Triafluocyl 20 μg/ml; Minocycline 10 μg/ml; FIG. 8C
Procedure: E. faecalis VRE (ATCC BAA-2365) was grown overnight in brain heart infusion (BHI) medium, diluted 1:100 in fresh BHI, and incubated aerobically at 37° C. until bacteria growth reached a logarithmic phase (OD600=0.2-0.25).
Triafluocyl (Cayman Chemical, Item No. 15425) (20 μg/ml), Minocycline (Sigma, 10 μg/ml) or vehicle (DMSO) was then added in 5 ml of bacteria suspensions. Bacterial growth was measured after different time intervals by counting the colony-forming units after plating appropriate culture dilutions on BHI agar plates.

Structure (SMILES): CCCSc1nc(N[C@@H]2C[C@H]2c2ccc(F)c(F)c2)c2nnn([C@@H]3C[C@H](O)[C@@H](O)[C@H]3O)c2n1 [Fluometacyl, (1S,2R,3S,4R)-4-[7-[[(1R,2S)-2-(3,4-Difluorophenyl)cyclopropyl]amino]-5-(propylthio)-3H-1,2,3-triazolo[4,5-d]pyrimidin-3-yl]-1,2,3-cyclopentanetriol]
- S. epidermidis biofilm formation [1]: could not form any biofilm

Structure (SMILES): CCCSc1nc(N[C@@H]2C[C@H]2c2ccc(F)c(F)c2)c2nnn([C@@H]3C[C@H](OCCO)[C@@H](O)[C@H]3O)c2n1 [Triafluocyl, (1S,2S,3R,5S)-3-[7-[(1R,2S)-2-(3,4-difluorophenyl)cyclopropylamino]-5-(propylthio)-3H-[1,2,3]-triazolo[4,5-d]pyrimidin-3-yl]-5-(2-hydroxyethoxy)-1,2-cyclopentanediol]
- MIC [2]: 40 µg/mL (≈ 76.5 µM)
- effect on bacterial growth (turbidity and viable count) ([3]; 10 μg/ml): able to inhibit bacterial growth
- effect on bacterial growth (turbidity and viable count) ([3]; 20 μg/ml): potent bactericidal effects
- effect on bacterial growth (turbidity and viable count) ([3]; 40 μg/ml): potent bactericidal effects
- E. faecalis biofilm formation ([4]; 40 μg/ml, polystyrene surface): no biofilm could form
- E. faecalis biofilm formation ([4]; starting concentration of 10 μg/ml, versus DMSO): significantly reduces
- decrease of OD600 compared to growth in absence of Triafluocyl ([5]; 5 μg/ml): 50%
- growth (OD600) of low-density inoculum ([5]; 10 μg/ml): inhibited growth
- growth (OD600) of low-density inoculum ([5]; 20 μg/ml): inhibited growth
- antibacterial effect on E. faecalis VRE (killing curve) [6]: bactericidal effect
